From PubChem BioAssay AID248 (DTP/NCI, 2004)
Several values for one entry are separate records, joined by “and”; a condition that tells them apart may be missing. Identical values can stand only once. Inconclusive results and toxic doses are left out. No stated cut-off is given here; in the data, active means T/C of 150% or more; inactive means T/C below 125%.

System: L1210 leukemia ip in BDF1 mice, survival T/C
Assay: NCI In Vivo Anticancer Drug Screen. Data for tumor model L1210 Leukemia (intraperitoneal) in B6D2F1 (BDF1) mice
Settings: endpoint: mean survival time, higher = longer survival
In short: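 Survival endpoint. Drug-treated group vs vehicle group, expressed as T divided by C. Tumor passaged by transplantation.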

[1] = dose: 100.0 mg/kg/injection, schedule: Q01DX001 (ip), vehicle: carboxymethylcellulose (CMC)
[2] = dose: 200.0 mg/kg/injection, schedule: Q01DX001 (ip), vehicle: carboxymethylcellulose (CMC)
[3] = dose: 400.0 mg/kg/injection, schedule: Q01DX001 (ip), vehicle: carboxymethylcellulose (CMC)
[4] = dose: 6.25 mg/kg/injection, schedule: Q01DX009 (ip), vehicle: saline
[5] = dose: 12.5 mg/kg/injection, schedule: Q01DX009 (ip), vehicle: saline
[6] = dose: 100.0 mg/kg/injection, schedule: Q04DX003 (ip), vehicle: saline
[7] = dose: 200.0 mg/kg/injection, schedule: Q04DX003 (ip), vehicle: saline
[8] = dose: 400.0 mg/kg/injection, schedule: Q04DX003 (ip), vehicle: saline
[9] = dose: 100.0 mg/kg/injection, schedule: Q01DX009 (ip), vehicle: saline with Tween-80
[10] = dose: 200.0 mg/kg/injection, schedule: Q01DX009 (ip), vehicle: saline with Tween-80
[11] = dose: 400.0 mg/kg/injection, schedule: Q01DX009 (ip), vehicle: saline with Tween-80
[12] = dose: 100.0 mg/kg/injection, schedule: Q01DX009 (ip), vehicle: saline
[13] = dose: 200.0 mg/kg/injection, schedule: Q01DX009 (ip), vehicle: saline
[14] = dose: 100.0 mg/kg/injection, schedule: Q04DX003 (ip), vehicle: saline with Tween-80
[15] = dose: 200.0 mg/kg/injection, schedule: Q04DX003 (ip), vehicle: saline with Tween-80
[16] = dose: 100.0 mg/kg/injection, schedule: Q01DX001 (ip), vehicle: saline
[17] = dose: 200.0 mg/kg/injection, schedule: Q01DX001 (ip), vehicle: saline
[18] = dose: 400.0 mg/kg/injection, schedule: Q01DX001 (ip), vehicle: saline

Measured: T/C

NNc1c(Cl)c(F)c(Cl)c(F)c1Cl
inactive: [1] 104 % of control | [2] 97 % of control | [3] 104 % of control

O=C(O)COc1ccc(Br)cn1
inactive: dose: 100.0 mg/kg/injection, schedule: Q04DX002 (ip), vehicle: Klucel (hydroxypropylcellulose) (HPC) 104 % of control | dose: 200.0 mg/kg/injection, schedule: Q04DX002 (ip), vehicle: Klucel (hydroxypropylcellulose) (HPC) 101 % of control | dose: 400.0 mg/kg/injection, schedule: Q04DX002 (ip), vehicle: Klucel (hydroxypropylcellulose) (HPC) 104 % of control

CC(=O)Oc1ccc2c(c1)C(=O)C(Br)C1C2CCC2(C)C(OC(C)=O)CCC12 (configuration not stated)
inactive: dose: 30.0 mg/kg/injection, schedule: Q01DX015 (sc), vehicle: steriod suspending solution 96 % of control | dose: 60.0 mg/kg/injection, schedule: Q01DX015 (sc), vehicle: steriod suspending solution 97 % of control | dose: 100.0 mg/kg/injection, schedule: Q01DX001 (sc), vehicle: steriod suspending solution 116 % of control | dose: 120.0 mg/kg/injection, schedule: Q01DX015 (sc), vehicle: steriod suspending solution 97 % of control | dose: 200.0 mg/kg/injection, schedule: Q01DX001 (sc), vehicle: steriod suspending solution 104 % of control | dose: 240.0 mg/kg/injection, schedule: Q01DX015 (sc), vehicle: steriod suspending solution 100 % of control | dose: 400.0 mg/kg/injection, schedule: Q01DX001 (sc), vehicle: steriod suspending solution 96 % of control

CCOC(=O)CC(C)=O.[Cu+2]
inactive: [4] 96 % of control | [5] 104 % of control | dose: 12.5 mg/kg/injection, schedule: Q04DX003 (ip), vehicle: Klucel (hydroxypropylcellulose) (HPC) 94 % of control | dose: 25.0 mg/kg/injection, schedule: Q01DX009 (ip), vehicle: saline 90 % of control | dose: 25.0 mg/kg/injection, schedule: Q04DX003 (ip), vehicle: Klucel (hydroxypropylcellulose) (HPC) 96 % of control

CC(=O)/C=N/NC(=O)C(O)C(O)C(O)C(O)CO (configuration not stated)
inactive: [6] 102 % of control | [7] 94 % of control | [8] 91 % of control

CC1(C)CC(=O)N/C1=C\C1NC(=O)CC1(C)C (configuration not stated)
inactive: [9] 96 % of control | [10] 104 % of control | [11] 102 % of control

O=C(O)c1ccccc1C(=O)OC1=CS(=O)(=O)CC1
inactive: dose: 50.0 mg/kg/injection, schedule: Q01DX001 (ip), vehicle: saline with Tween-80 97 % of control | dose: 100.0 mg/kg/injection, schedule: Q01DX001 (ip), vehicle: saline with Tween-80 101 % of control and 104 % of control | dose: 200.0 mg/kg/injection, schedule: Q01DX001 (ip), vehicle: saline with Tween-80 95 % of control and 123 % of control | dose: 400.0 mg/kg/injection, schedule: Q01DX001 (ip), vehicle: saline with Tween-80 104 % of control and 105 % of control

CCOC(=O)CNC(=O)C(=[N+]=[N-])C(=O)COc1ccc(F)cc1
inactive: dose: 50.0 mg/kg/injection, schedule: Q01DX001 (ip), vehicle: carboxymethylcellulose (CMC) 104 % of control | [1] 95 % of control | [2] 101 % of control | [3] 90 % of control

CC(=O)Oc1ccc(OC(C)=O)c2c1CC(C)=C(C)C2
inactive: [12] 95 % of control | [6] 97 % of control | [13] 90 % of control | [7] 98 % of control | dose: 400.0 mg/kg/injection, schedule: Q01DX009 (ip), vehicle: saline 92 % of control | [8] 97 % of control

CCOC(=O)C1(Cl)OC(Cl)(Cl)C(Cl)C1Cl (configuration not stated)
inactive: dose: 10.0 mg/kg/injection, schedule: Q01DX001 (ip), vehicle: saline 92 % of control | dose: 20.0 mg/kg/injection, schedule: Q01DX001 (ip), vehicle: saline 90 % of control | dose: 40.0 mg/kg/injection, schedule: Q01DX001 (ip), vehicle: saline 103 % of control | dose: 80.0 mg/kg/injection, schedule: Q01DX001 (ip), vehicle: saline 90 % of control

COc1cc(C)c(O)c(C[P+](c2ccccc2)(c2ccccc2)c2ccccc2)c1
inactive: [14] 91 % of control | [15] 94 % of control

O=[N+]([O-])C(CO)(CO)CC(F)(F)F
inactive: dose: 3.13 mg/kg/injection, schedule: Q01DX009 (ip), vehicle: saline 96 % of control | [4] 98 % of control | [5] 102 % of control

CCN(CC)C(=O)OCCCN(C)C
inactive: dose: 50.0 mg/kg/injection, schedule: Q01DX009 (ip), vehicle: Klucel (hydroxypropylcellulose) (HPC) 96 % of control | [6] 105 % of control | [7] 105 % of control

CN(C(N)=S)c1ccccc1
inactive: [14] 101 % of control | [15] 102 % of control | dose: 400.0 mg/kg/injection, schedule: Q04DX003 (ip), vehicle: saline with Tween-80 104 % of control

C/C(=C/CO)CC/C=C(\C)CC/C=C(\C)CCC1OC1(C)C (configuration not stated)
inactive: [16] 92 % of control | [17] 96 % of control | [18] 102 % of control

Nc1n[nH]c2cccc(Cl)c12
inactive: dose: 50.0 mg/kg/injection, schedule: Q01DX009 (ip), vehicle: saline 96 % of control | [12] 104 % of control | [13] 96 % of control

O=C(Nc1ccc(S(=O)(=O)F)c(Cl)c1)Oc1ccccc1
inactive: [16] 96 % of control | [17] 96 % of control | [18] 96 % of control

O=C(CNC(=O)OCc1ccccc1)Nc1ccc(S(=O)(=O)c2ccc(NC(=O)CNC(=O)OCc3ccccc3)cc2)cc1
inactive: dose: 50.0 mg/kg/injection, schedule: Q01DX001 (ip), vehicle: saline 96 % of control | [16] 96 % of control | [17] 96 % of control | [18] 90 % of control

COc1ccc(OC)c(NC(=O)Nc2cccc(C(F)(F)F)c2)c1
inactive: dose: 25.0 mg/kg/injection, schedule: Q01DX009 (ip), vehicle: carboxymethylcellulose (CMC) 97 % of control and 87 % of control | dose: 50.0 mg/kg/injection, schedule: Q01DX009 (ip), vehicle: carboxymethylcellulose (CMC) 112 % of control and 88 % of control | [1] 103 % of control and 107 % of control | dose: 100.0 mg/kg/injection, schedule: Q01DX009 (ip), vehicle: carboxymethylcellulose (CMC) 87 % of control | dose: 100.0 mg/kg/injection, schedule: Q04DX002 (ip), vehicle: carboxymethylcellulose (CMC) 95 % of control and 89 % of control | dose: 100.0 mg/kg/injection, schedule: Q04DX003 (ip), vehicle: carboxymethylcellulose (CMC) 103 % of control and 87 % of control | [2] 96 % of control and 89 % of control | dose: 200.0 mg/kg/injection, schedule: Q04DX002 (ip), vehicle: carboxymethylcellulose (CMC) 92 % of control and 99 % of control | dose: 200.0 mg/kg/injection, schedule: Q04DX003 (ip), vehicle: carboxymethylcellulose (CMC) 93 % of control and 87 % of control | [3] 94 % of control and 100 % of control | dose: 400.0 mg/kg/injection, schedule: Q01DX009 (ip), vehicle: carboxymethylcellulose (CMC) 86 % of control | dose: 400.0 mg/kg/injection, schedule: Q04DX002 (ip), vehicle: carboxymethylcellulose (CMC) 86 % of control | dose: 400.0 mg/kg/injection, schedule: Q04DX003 (ip), vehicle: carboxymethylcellulose (CMC) 90 % of control

C=C(c1ccccc1)C(C)C(=O)OCC (configuration not stated)
inactive: [9] 96 % of control | [10] 101 % of control | [11] 98 % of control

CCOc1ccn(CC(=O)N2CCOCC2)c(=O)n1
inactive: dose: 100.0 mg/kg/injection, schedule: Q01DX009 (ip), vehicle: water 93 % of control | dose: 100.0 mg/kg/injection, schedule: Q04DX003 (ip), vehicle: water 105 % of control | dose: 200.0 mg/kg/injection, schedule: Q01DX009 (ip), vehicle: water 95 % of control | dose: 200.0 mg/kg/injection, schedule: Q04DX003 (ip), vehicle: water 100 % of control | dose: 400.0 mg/kg/injection, schedule: Q01DX009 (ip), vehicle: water 98 % of control | dose: 400.0 mg/kg/injection, schedule: Q04DX003 (ip), vehicle: water 95 % of control

NCC(O)COc1ccccc1N (configuration not stated)
inactive: dose: 3.12 mg/kg/injection, schedule: Q01DX009 (ip), vehicle: saline 97 % of control | [4] 106 % of control | [5] 100 % of control | dose: 12.5 mg/kg/injection, schedule: Q04DX003 (ip), vehicle: saline 93 % of control
